Laboratory results from patent publication US20230405071A1, “COMPOSITIONS AND METHODS USEFUL FOR MANAGEMENT OF BLOOD SUGAR” (SOLVEAT FUNCTIONAL NUTRITION SOLUTIONS LTD., priority 2020, published 2023).

Assays:
L6 myotubes = assay: Glucose uptake colorimetric assay (2-deoxy glucose) in differentiated L6 cells; assay type: cell-based; settings: insulin challenge versus serum-free control (FIG. 2)
Description: The objective of the study was to evaluate the anti-diabetic action of herbal blends. The ability to enhance glucose consumption by skeletal muscle was evaluated in L6 myotubes model in comparison to various control groups, including two known traditional reference formulae.
Cell culturing, materials preparations and all treatments were performed under sterile conditions. The L6 Cells culture medium comprised A-MEM supplemented with 100 U/ml penicillin and 100 μg/ml streptomycin and 10% FBS, sterilely filtered. The L6 cells differentiation medium comprised α-MEM supplemented with 100 U/ml penicillin and 100 μg/ml streptomycin and 2% FBS, sterilely filtered. […]
Glucose uptake assay was performed using Glucose Uptake Colorimetric Assay Kit in the non-radioactive 2-deoxy glucose derivative, according to the manufacturers' instructions in KRBH buffer, on differentiated cells. Colorimetric data was quantified by the use of a standard curve. Glucose uptake in the control (naïve cells), vehicle (DDW), and insulin-treated cells was measured.
Glucose uptake assay was then performed for the two concentrations of tested items: at 50 μg/mL and at 5 μg/mL. […] It can be readily appreciated from the FIG. 3 that the composition of eight ingredients composition was equipotent to QWS and BHT (denoted as “c1” and c2”) at the concentration of 50 μg/mL. […]

[1] = human, in vivo
Description: Patient 1: a person, suffering from diabetic leg complications and a non-healing wound on the minimus, indicated for amputation. The patient was treated with the composition as in the example 5, TI.1-8HC, 3 grams per day, for 20 days. The treatment was supported with suitable acupuncture protocol, and topical antibiotic preparations.
Patient 2: a person, suffering from diabetes, a completer of the clinical trial similar to the described in the Example 3, proceeded with the open-label extension for further 3 months and achieved a 24% reduction in the fasting glucose levels. Thereafter the dose was increased to 1500 mg twice daily, and after one month a complete control over fasting glucose level has been achieved (below 140 mg/dL). Low-carbohydrate diets was prescribed to maintain the achievement. The patient presented a year after with fasting blood glucose of over 160; requested and was prescribed raw fan shi liu ye 10000 mg per day (as decoction—10 minutes boiling, chilling, and consumption). After 10 days the fasting blood glucose declined to between 120 and 130 mg/dL, but the patient suffered from fatigue and reverted to the experimental chocolate.
Patient 3: a person, presented during COVID-19 pandemics with fasting blood glucose of 150 mg/dL, HA1C of 7.4, with anxiety and uncontrolled eating. […]

Substance	glucose uptake by muscle cells (L6 myotubes)	tolerability of treatment over extended time [1]
insulin	significantly increased	–
Psidium guajava L. [fan shi liu ye]	–	could not be well tolerated
